The values that follow come from patent US20130296228A1, “EFFLUX PUMP INHIBITORS” (priority 2010, published 2013).

One experiment relates to P. aeruginosa 23587. In words: Diameter of zone of inhibition of antimicrobial agents with or without efflux pump inhibitor. In kind it is cell-based. The note with it: for change of activity in the presence of PAN: clinical isolates P. aeruginosa 23587 and P. aeruginosa 2301; for inhibition of MDR RND efflux pumps, concluded from potentiation: clinical isolates of P. aeruginosa. The text has this: Since RND efflux pumps operate by utilizing energy in […], metabolic inhibitor, sodium azide brings about MDR RND pump inhibition by causing energy deprivation.

Experiment [1] has as its system P. aeruginosa 2301. The experiment is described as above. In kind it is cell-based. As to conditions: for Diameter of zone of inhibition: P. aeruginosa 2301.
Experiment [2] deals with P. aeruginosa 2301. In words: Survival of high density inoculation in MHA medium. It is filed as cell-based. As to conditions: high density inoculation 2-5 × 10^9 CFU/ml; 20 mcg/ml in MHA medium. An excerpt: In a most surprising manner, the combination of ceftazidime and azithromycin and tigecycline respectively brought about more than 7 log reduction in the bacterial count as compared to individual effects in highly resistant Pseudomonas strain. Moreover in a very unusual and surprising manner this tremendous bactericidal effect is taking place at concentrations much below than their individual inhibitory concentrations. […] It is also likely that ceftazidime interacts with outer membrane porins and acts as a porin modulator. Bacalum et al. have shown that ceftazidime binds to outer membrane porins with high affinity (Bacalum et al. Romanian. J. Biophys., 19, 105-116, 2009).

The subject of experiment [3] is MDR clinical isolate of P. aeruginosa 2301. In words: Systemic infection in mice, % survival. It is filed as in vivo. As to conditions: Table 7, mice, Oral.
Where [4] appears, read: Table 1, P. aeruginosa 23587, +PAN (20 μg/ml), 12.5 μg/well.
Where [5] appears, read: Table 2, P. aeruginosa (23587), +sodium azide (10 μg/ml), 50 μg/well.
[6] abbreviates: Table 2, P. aeruginosa (23587), +sodium azide (10 μg/ml), 100 μg/well.
The mark [7] stands for this setting: Table 2, P. aeruginosa (23587), +sodium azide (10 μg/ml), 200 μg/well.
[8] abbreviates: Table 1, +PAN (20 μg/ml), 12.5 μg/well.

Where “and” joins values, the source holds several entries; their conditions need not be identical. Equal entries are not always repeated. Where two headings read alike, the source gives them in different places. Residues, ends and D or L forms follow the SMILES beside them. Where only a bound is given, the exact number is not on record here.

With `CC[C@H]1OC(=O)[C@H](C)[C@@H](O[C@H]2C[C@@](C)(OC)[C@@H](O)[C@H](C)O2)[C@H](C)[C@@H](O[C@@H]2O[C@H](C)C[C@H](N(C)C)[C@H]2O)[C@](C)(O)C[C@@H](C)CN(C)[C@H](C)[C@@H](O)[C@]1(C)O` [Azithromycin, azithromycin], the “change of activity in presence of reserpine” value in the experiment on P. aeruginosa 23587 is “no change”. The “change of activity on addition of sodium azide” value with P. aeruginosa 23587 was “potentiated”. Also, the “change of activity in the presence of cefepime and ceftazidime” value with P. aeruginosa 23587 (Example 3) and in the experiment on P. aeruginosa 2301 [1] (Example 6) was “significant potentiation” in each case. Further, the “Diameter of zone of inhibition” value was 16 m.m in the experiment with P. aeruginosa 23587 (setting [4]); 23.5 m.m in the experiment with P. aeruginosa 23587 (Table 1, P. aeruginosa 23587, +PAN (20 μg/ml), 25 μg/well); 27 m.m in the experiment on P. aeruginosa 23587 (Table 1, P. aeruginosa 23587, +PAN (20 μg/ml), 50 μg/well); 19H in the experiment with P. aeruginosa 23587 (Table 1, P. aeruginosa 23587, Control, 25 μg/well); 23H in the experiment on P. aeruginosa 23587 (Table 1, P. aeruginosa 23587, Control, 50 μg/well); 12H in the experiment on P. aeruginosa 23587 (Table 2, P. aeruginosa (23587), +Reserpine (25 μg/ml), 50 μg/well). The “Diameter of zone of inhibition” value in the experiment on P. aeruginosa 23587 (Table 2, P. aeruginosa (23587), +Reserpine (25 μg/ml), 100 μg/well) stood at 20H; in the experiment with P. aeruginosa 23587 (Table 2, P. aeruginosa (23587), +Reserpine (25 μg/ml), 200 μg/well), 24H; in the experiment with P. aeruginosa 23587 (setting [5]), 21H; in the experiment on P. aeruginosa 23587 (setting [6]) it was 24H; in the experiment with P. aeruginosa 23587 (setting [7]), 30 m.m; in the experiment with P. aeruginosa 23587 (Table 2, P. aeruginosa (23587), Control, 50 μg/well), 12H. In addition, the “Diameter of zone of inhibition” value with P. aeruginosa 23587 (Table 2, P. aeruginosa (23587), Control, 100 μg/well) is given as 20H; in the experiment with P. aeruginosa 23587 (Table 2, P. aeruginosa (23587), Control, 200 μg/well), 24H; in the experiment with P. aeruginosa 23587 (Table 3, P. aeruginosa 23587, +Cefepime (1 μg/ml), 100 μg/Well), 28H; in the experiment on P. aeruginosa 23587 (Table 3, P. aeruginosa 23587, +Cefepime (1 μg/ml), 200 μg/Well), 30H; in the experiment on P. aeruginosa 23587 (Table 3, P. aeruginosa 23587, +Ceftazidime (1 μg/ml), 100 μg/Well), 36 m.m; with P. aeruginosa 23587 (Table 3, P. aeruginosa 23587, +Ceftazidime (1 μg/ml), 200 μg/Well), 42 m.m. Moreover, the “Diameter of zone of inhibition” value with P. aeruginosa 23587 (Table 3, P. aeruginosa 23587, Control, 100 μg/Well) is given as 20H; in the experiment with P. aeruginosa 23587 (Table 3, P. aeruginosa 23587, Control, 200 μg/Well), 24H; in the experiment on P. aeruginosa 2301 [1] (setting [8]) it was 25 m.m; in the experiment with P. aeruginosa 2301 [1] (Table 1, +PAN (20 μg/ml), 25 μg/well), 28 m.m; in the experiment with P. aeruginosa 2301 [1] (Table 1, +PAN (20 μg/ml), 50 μg/well) it was 32 m.m; in the experiment with P. aeruginosa 2301 [1] (Table 1, Control, 25 μg/well), “SLI”. In addition, the “Diameter of zone of inhibition” value in the experiment on P. aeruginosa 2301 [1] (Table 1, Control, 50 μg/well) is on record as 13.5H; in the experiment with P. aeruginosa 2301 [1] (Table 6, +Cefepime (2 μg/ml), 50 μg/Well), 24H; in the experiment with P. aeruginosa 2301 [1] (Table 6, +Cefepime (2 μg/ml), 100 μg/Well) it was 28H; in the experiment with P. aeruginosa 2301 [1] (Table 6, +Cefepime (2 μg/ml), 200 μg/Well), 30H; with P. aeruginosa 2301 [1] (Table 6, +Ceftazidime (0.5 μg/ml), 50 μg/Well), 32H; with P. aeruginosa 2301 [1] (Table 6, +Ceftazidime (0.5 μg/ml), 100 μg/Well), 36H. In addition, the “Diameter of zone of inhibition” value in the experiment on P. aeruginosa 2301 [1] (Table 6, +Ceftazidime (0.5 μg/ml), 200 μg/Well) was 42H; with P. aeruginosa 2301 [1] (Table 6, Control, 50 μg/Well) it was 12H; with P. aeruginosa 2301 [1] (Table 6, Control, 100 μg/Well) it was 20H; with P. aeruginosa 2301 [1] (Table 6, Control, 200 μg/Well), 24H. Besides, the “change of activity in the presence of PAN” value (“change of activity … of PAN” for short) with P. aeruginosa 23587 is “Synergistic enhancement”. Moreover, the “CFU/ml at 48 h” value in the experiment with P. aeruginosa 2301 [2] is on record as >5 × 10^9 CFU/ml.

As to `CC(=O)NC[C@H]1CN(c2ccc(N3CCOCC3)c(F)c2)C(=O)O1` [linezolid], the “change of activity … of PAN” value in the experiment with P. aeruginosa 23587 is “Synergistic enhancement”.

As for `CS(=O)(=O)O.C[C@H](N)C(=O)OC1CCN(c2c(F)cc3c(=O)c(C(=O)O)cn4c3c2CC[C@@H]4C)CC1` [2′S,5S-(−)-9-Fluoro-8-(4-alaninyloxy-piperidin-1-yl)-5-methyl-6,7-dihydro-1-oxo-1H,5H-benzo[i,j]quinolizine-2-carboxylic acid methane sulfonic acid salt], the “% survival” value is 0% in experiment [3] (50 mg/kg BID × 1 day), 16.6% in experiment [3] (75 mg/kg BID × 1 day) and 16.6% in experiment [3] (100 mg/kg BID × 1 day).

With `CN(C)c1cc(NC(=O)CNC(C)(C)C)c(O)c2c1C[C@H]1C[C@H]3[C@H](N(C)C)C(O)=C(C(N)=O)C(=O)[C@@]3(O)C(O)=C1C2=O` [Tigecycline, tigecycline], the “CFU/ml at 48 h” value with P. aeruginosa 2301 [2] is >5 × 10^9 CFU/ml.

As for `COC(=O)[C@H]1[C@H]2C[C@@H]3c4[nH]c5cc(OC)ccc5c4CCN3C[C@H]2C[C@@H](OC(=O)c2cc(OC)c(OC)c(OC)c2)[C@@H]1OC` [reserpine], the “inhibition of MDR RND efflux pumps, concluded from potentiation” value (“inhibition of MDR RND efflux pumps” below) in the experiment with P. aeruginosa 23587 is reported as “non inhibition”.

As for `CO/N=C(\C(=O)N[C@@H]1C(=O)N2C(C(=O)[O-])=C(C[N+]3(C)CCCC3)CS[C@H]12)c1csc(N)n1` [Cefepime, cefepime], the “inhibition of MDR RND efflux pumps” value in the experiment with P. aeruginosa 23587 is listed as “inhibit RND pumps”.

For `NC(N)=NCCCC(NC(=O)[C@@H](N)Cc1ccccc1)C(=O)Nc1ccc2ccccc2c1` (stereo partly drawn) [PAN, Phe-Arg-beta-naphthylamide] (HELM PEPTIDE1{F.[N=C(N)NCCCC(N[*:1])C(=O)[*:2]].[c1ccc2cc(N[*:1])ccc2c1]}$$$$V2.0), in the experiment on P. aeruginosa 23587, the “inhibition of MDR RND efflux pumps” value was “efflux inhibition”.

For colistin, the “Diameter of zone of inhibition” value in the experiment with P. aeruginosa 23587 was 12.5 m.m. and 14 m.m. and 16.5 m.m. and 11.5 m.m. and 16 m.m; in the experiment on P. aeruginosa 23587 (setting [4]), 16.5 m.m; in the experiment on P. aeruginosa 23587 (Table 2, P. aeruginosa (23587), +Reserpine (25 μg/ml), 12.5 μg/well) it was 16 m.m; with P. aeruginosa 23587 (Table 2, P. aeruginosa (23587), +sodium azide (10 μg/ml), 12.5 μg/well), 16 m.m; in the experiment with P. aeruginosa 23587 (Table 3, P. aeruginosa 23587, +Cefepime (1 μg/ml), 12.5 μg/Well) it was 16 m.m; in the experiment with P. aeruginosa 23587 (Table 3, P. aeruginosa 23587, +Ceftazidime (1 μg/ml), 12.5 μg/Well), 16 m.m. Also, the “Diameter of zone of inhibition” value is 16 m.m in the experiment with P. aeruginosa 2301 [1] (setting [8]); 16 m.m with P. aeruginosa 2301 [1] (Table 6, +Cefepime (2 μg/ml), 12.5 μg/Well); 16 m.m in the experiment on P. aeruginosa 2301 [1] (Table 6, +Ceftazidime (0.5 μg/ml), 12.5 μg/Well). Moreover, the “change of activity … of PAN” value in the experiment with P. aeruginosa 23587 was “no change”.

Turning to `CC[n+]1c(-c2ccccc2)c2cc(N)ccc2c2ccc(N)cc21` [Ethidium Bromide, ethidium bromide], the “Diameter of zone of inhibition” value turned out to be 10H with P. aeruginosa 23587 (setting [5]), 13H in the experiment on P. aeruginosa 23587 (setting [6]) and 16H in the experiment on P. aeruginosa 23587 (setting [7]).
